In US20260076975A1, “TPK AGONIST AND METHOD FOR USING SAME TO TREAT NEURODEGENERATIVE DISEASES” (SHANGHAI RAISING PHARMACEUTICAL CO., LTD., priority 2022, published 2026):
Like-named read-outs stand apart in the source and are kept apart here.

Target: TPK enzyme (Homo sapiens, UniProt Q9H3S4)
Assay: TPK enzyme activity test (TDP formation from thiamine and ATP, HPLC detection)
Type: biochemical
Experimental: The purpose of this example was to test the promoting effect of compounds on TPK enzyme activity and evaluate the in vitro activity of the compounds based on EC50 and Emax.
1.1) The constant-temperature water-bath shaker was pre-heated half an hour in advance at a pre-heating temperature of 37° C.
1.2) The stock solution of the compound to be tested was taken out, allowed to thaw at room temperature, and then diluted to the required concentration.
1.3) The required reagents were placed on ice to thaw.
2.1) For each reaction system, TPK enzyme solution, Tris-HCl buffer solution, and ATP solution were added. The concentration of ATP used was 1-500 mM. The above three solutions were formulated into a homogeneous mixture.
2.2) The mixture of the above three solutions was dispensed into centrifuge tubes. Then, the compound at the required concentration was added to each centrifuge tube. Finally, thiamine solution (1-100 μM) was added. After the addition of the above system was completed, the centrifuge tubes were tightly capped, inserted into a floating board, and placed in the constant-temperature water-bath shaker that had been pre-heated to 37° C. for incubation for 0.5-2.0 hours.
2.3) After the incubation was completed, perchloric acid stop solution was added and mixed well. Samples were taken into 1.5 mL centrifuge tubes and stored at −20° C.
3.1) The samples stored at −20° C. were taken out, thawed at room temperature, and then subjected to derivatization treatment. The samples were placed in centrifuge tubes, a potassium ferricyanide derivatization reagent was added, and finally phosphoric acid stop solution was added to stop the reaction.
3.2) The derivatized samples were placed in sample vials for liquid chromatography analysis, and the contents of TDP/thiamine were detected by high performance liquid chromatography. TKP enzyme activity=TDP (nM)/mg protein/min.
The effects of the compounds of the present invention on TPK enzyme activity at different concentrations were determined according to the above procedures.

[1] = promoting effect on TPK enzyme activity
[2] = promoting effect on TPK enzyme activity, calculated with the effect of DMSO on TPK enzyme activity as 100%, read-out: Emax
[3] = promoting effect on TPK enzyme activity, calculated with the effect of DMSO on TPK enzyme activity as 100%

Sequence of TPK enzyme (Q9H3S4 whole entry): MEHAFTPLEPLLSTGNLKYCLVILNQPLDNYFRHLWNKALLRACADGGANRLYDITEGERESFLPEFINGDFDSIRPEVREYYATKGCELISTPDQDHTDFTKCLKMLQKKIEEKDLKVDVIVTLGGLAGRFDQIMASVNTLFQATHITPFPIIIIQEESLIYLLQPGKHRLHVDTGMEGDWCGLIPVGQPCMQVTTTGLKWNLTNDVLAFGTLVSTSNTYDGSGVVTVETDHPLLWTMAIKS

| SMILES | Emax [%] | EC50 [1] [nM] | Emax [2] [%] | Emax [3] [%] |
| --- | --- | --- | --- | --- |
| COc1ccc(/C=C/CC(=O)N2CCN(c3cccc(Cl)c3Cl)CC2)cc1OC [Compound 59, (E)-1-(4-(2,3-dichlorophenyl)piperazin-1-yl)-4-(3,4-dimethoxyphenyl)but-3-en-1-one] | 206 | 1220 |  |  |
| COc1ccc(/C=C/CN2CCN(c3cccc(Cl)c3Cl)CC2)cc1OC [Compound 60, (E)-1-(2,3-dichlorophenyl)-4-(3-(3,4-dimethoxyphenyl)allyl)piperazine] |  | 1280 | 234 |  |
| CC(O)COc1ccc(/C=C/CN2CCN(c3cccc(Cl)c3Cl)CC2)cc1O (stereo not shown) [Compound 62, (E)-5-(3-(4-(2,3-dichlorophenyl)piperazin-1-yl)prop-1-en-1-yl)-2-(2-hydroxypropoxy)phenol] |  | 918 | 137 |  |
| COc1ccc(CCNC(=O)N2CCN(c3cccc(Cl)c3Cl)CC2)cc1OC [Compound 64, 4-(2,3-dichlorophenyl)-N-(3,4-dimethoxyphenethyl)piperazine-1-carboxamide] | 184 | 4710 |  |  |
| COc1ccc(NC(=O)CNC(=O)N2CCN(c3cccc(Cl)c3Cl)CC2)cc1OC [Compound 65, 4-(2,3-dichlorophenyl)-N-(2-((3,4-dimethoxyphenyl)amino)-2-oxoethyl)piperazine-1-carboxamide] | 133 |  |  |  |
| COc1cccc(NC(=O)CNC(=O)N2CCN(c3cccc(Cl)c3Cl)CC2)c1 [Compound 68, 4-(2,3-dichlorophenyl)-N-(2-((3-methoxyphenyl)amino)-2-oxoethyl)piperazine-1-carboxamide] | 144 |  |  |  |
| COc1cncc(C#CCN2CCN(c3cccc(Cl)c3Cl)CC2)c1 [Compound 69, 1-(2,3-dichlorophenyl)-4-(3-(5-methoxypyridin-3-yl)prop-2-yn-1-yl)piperazine] | 194 | 2720 |  |  |
| Oc1cncc(C#CCN2CCN(c3cccc(Cl)c3Cl)CC2)c1 [Compound 70, 5-(3-(4-(2,3-dichlorophenyl)piperazin-1-yl)prop-1-yn-1-yl)pyridin-3-ol] | 147 |  |  |  |
| COc1cncc(C#CCCN2CCN(c3cccc(Cl)c3Cl)CC2)c1 [Compound 71, 1-(2,3-dichlorophenyl)-4-(4-(5-methoxypyridin-3-yl)but-3-yn-1-yl)piperazine] | 189 | 1190 |  |  |
| COc1cncc(C#CC(=O)N2CCN(c3cccc(Cl)c3Cl)CC2)c1 [Compound 72, 1-(4-(2,3-dichlorophenyl)piperazin-1-yl)-3-(5-methoxypyridin-3-yl)prop-2-yn-1-one] | 171 | 3240 |  |  |
| COc1ccc(/C=C/CN2CCN(c3nc4ccccc4s3)CC2)cc1OC [Compound 73, (E)-2-(4-(3-(3,4-dimethoxyphenyl)allyl)piperazin-1-yl)benzo[d]thiazole] |  | 650 | 155 |  |
| COc1ccc(/C=C/C(=O)N2CCN(c3nc4ccccc4s3)CC2)cc1OC [Compound 74, (E)-1-(4-(benzo[d]thiazol-2-yl)piperazin-1-yl)-3-(3,4-dimethoxyphenyl)prop-2-en-1-one] |  | 12100 | 182 |  |
| Cc1ccc2c(n1)N(CCCCCN1CCN(c3cccc(Cl)c3Cl)CC1)CCO2 [Compound 75, 4-(5-(4-(2,3-dichlorophenyl)piperazin-1-yl)pentyl)-6-methyl-3,4-dihydro-2H-pyrido[3,2-b][1,4]oxazine] | 136 | 220 |  |  |
| Cc1ccc2c(n1)N(CCC(=O)NCCN1CCN(c3cc(Cl)ccc3C)CC1)CCO2 [Compound 76, N-(2-(4-(5-chloro-2-methylphenyl)piperazin-1-yl)ethyl)-3-(6-methyl-2,3-dihydro-4H-pyrido[3,2-b][1,4]oxazin-4-yl)propanamide] |  | 3460 | 147 |  |
| Cc1ccc2c(n1)N(CCCCCN1CCN(c3cc(Cl)ccc3C)CC1)CCO2 [Compound 77, 4-(5-(4-(5-chloro-2-methylphenyl)piperazin-1-yl)pentyl)-6-methyl-3,4-dihydro-2H-pyrido[3,2-b][1,4]oxazine] | 146 |  |  |  |
| COc1cc2c(cc1OC)N(CCCCN1CCN(c3cccc(C(F)(F)F)c3)CC1)C(=O)C2 [Compound 78, 5,6-dimethoxy-1-(4-(4-(3-(trifluoromethyl)phenyl)piperazin-1-yl)butyl)indol-2-one] | 130 |  |  |  |
| COc1cc2c(cc1OC)N(CCCCN1CCN(c3cccc(Cl)c3Cl)CC1)C(=O)C2 [Compound 79, 1-(4-(4-(2,3-dichlorophenyl)piperazin-1-yl)butyl)-5,6-dimethoxyindolin-2-one] | 133 |  |  |  |
| CCOC(=O)c1nc(CNC(=O)CCCN2CCN(c3nc4ccccc4s3)CC2)sc1C [Compound 80, ethyl 2-((4-(4-(benzo[d]thiazol-2-yl)piperazin-1-yl)butanamido)methyl)-5-methylthiazole-4-carboxylate] |  | 2550 | 150 |  |
| CCOC(=O)c1nc(CNC(=O)CCCN2CCN(c3cccc(Cl)c3Cl)CC2)sc1C [Compound 82, ethyl 2-((4-(4-(2,3-dichlorophenyl)piperazin-1-yl)butanamido)methyl)-5-methylthiazole-4-carboxylate] |  | 2520 | 156 |  |
| Cc1ccc(Cl)cc1N1CCN(CCNC(=O)CC2Oc3ccccc3NC2=O)CC1 (stereo not shown) [Compound 84] |  | 3860 |  | 154.70 |
| O=C(CC1Oc2ccccc2NC1=O)NCCN1CCN(c2cccc(Cl)c2Cl)CC1 (stereo not shown) [Compound 85, N-(2-(4-(2,3-dichlorophenyl)piperazin-1-yl)ethyl)-2-(3-oxo-3,4-dihydro-2H-benzo[b][1,4]oxazin-2-yl)acetamide] |  |  | 168 |  |
| Cc1ccc(Cl)cc1N1CCN(CCNC(=O)CC2Oc3ccccc3NC2=O)CC1 (stereo not shown) [Compound 91] |  | 25800 |  | 200.91 |
| CN(CCOCc1cccc(Cl)c1Cl)CCOc1ccc2c(c1)NC(=O)CC2 [Compound 98, 7-(2-((2-((2,3-dichlorobenzyl)oxy)ethyl)(methyl)amino)ethoxy)-3,4-dihydroquinolin-2(1H)-one] |  |  | 139 |  |
| O=C1CCc2ccc(OCCNCCC3CC3c3cccc(Cl)c3Cl)cc2N1 (stereo not shown) [Compound 102, 7-(2-((2-(2-(2,3-dichlorophenyl)cyclopropyl)ethyl)amino)ethoxy)-3,4-dihydroquinolin-2(1H)-one] |  | 12400 | 170 |  |
| O=C1CCc2ccc(OCCN3CCc4cc(Cl)ccc43)cc2N1 [Compound 103, 7-(2-(5-chloroindolin-1-yl)ethoxy)-3,4-dihydroquinolin-2(1H)-one] |  | 17300 | 137 |  |
| O=C1CCc2cc(OCCCN3CC(=O)Nc4ccc(Cl)cc43)ccc2N1 [Compound 115, 6-chloro-4-(3-((2-oxo-1,2,3,4-tetrahydroquinolin-6-yl)oxy)propyl)-3,4-dihydroquinoxalin-2(1H)-one] |  |  | 159 |  |
| COc1cc2c(cc1OC)C(CCCCC(=O)NCc1ccc(C(C)C)cc1)C(=O)N2 (stereo not shown) [Compound 132, 5-(5,6-dimethoxy-2-oxoindolin-3-yl)-N-(4-isopropylbenzyl)pentanamide] |  |  | 120 |  |
| CN(c1cccc(Cl)c1Cl)[C@@H]1CCN(CCCCOc2ccc3c(c2)NC(=O)CC3)C1 [Compound 133, (R)-7-(4-(3-((2,3-dichlorophenyl)(methyl)amino)pyrrolidin-1-yl)butoxy)-3,4-dihydroquinolin-2(1H)-one] |  | 10800 | 167 |  |
